A short description of data set [1]: Selectivity index, ratio of IC50 for rat L6 cells to IC50 for bloodstream forms of Trypanosoma brucei rhodesiense STIB 900. It counts as toxicity, cell-based. As to conditions: read-out: Ratio IC50.
Data set [2] deals with Trypanosoma brucei rhodesiense. As to the kind of experiment: Antiprotozoal activity against bloodstream forms of Trypanosoma brucei rhodesiense STIB 900 after 70 hrs by Alamar blue assay. It counts as functional, organism-based. Particulars: STIB 900, 70 h. Background: Alamar Blue is a resazurin reagent that responds to reducing activity.
In another data set the test system is L6. As to the kind of experiment: Cytotoxicity against rat L6 cells. It counts as cell-based.

Structures are written as SMILES.

Drawing on ChEMBL document CHEMBL3399999, “Anti-trypanosomal cadinanes synthesized by transannular cyclization of the natural sesquiterpene lactone nobilin” (Bioorg Med Chem, 2015), this text covers selectivity ratio and IC50 for nine molecules.

The term IC50 denotes the concentration needed to halve the response being measured. Take `C=C(C(=O)O)[C@H]1[C@@H]2C=C(C)[C@@H](O)C[C@H]2[C@](C)(O)C[C@@H]1OC(=O)/C(C)=C\C`: in data set [1], the selectivity ratio was greater than 2. Also, the IC50 in data set [2] is 50.5 µM; in the data set on L6, greater than 100 µM.

Take `C=C(C(=O)O)[C@H]1[C@@H]2C=C(C)[C@@H](O)C[C@@H]2[C@](C)(O)C[C@@H]1OC(=O)/C(C)=C\C`: the selectivity ratio in data set [1] stood at 3.3. Also, the figures for the IC50 (in data set [2]; in the data set with L6) were 14.8 µM and 49 µM, respectively.

With `C=C1C(=O)O[C@]23C=C(C)[C@@H](O)C[C@@H]2[C@H](C)C[C@H](OC(=O)/C(C)=C\C)[C@@H]13`, in data set [1], the selectivity ratio was found to be 1.5. Also, the values for the IC50 (in data set [2]; with L6) were 1.44 µM and 2.12 µM, respectively.

As for `C=C1C(=O)O[C@@]23C=C(C)[C@@H](O)C[C@@H]2[C@@H](C)C[C@H](OC(=O)/C(C)=C\C)[C@@H]13`, in data set [1], the selectivity ratio is 2.4. In addition, the IC50 is 0.46 µM in data set [2] and 1.11 µM in the data set with L6.

With `C=C(C(=O)O)[C@H]1[C@@H]2C=C(C)C(=O)C[C@@H]2[C@@H](C)C[C@@H]1OC(=O)/C(C)=C\C`, in data set [1], the selectivity ratio turned out to be 1.6. Further, the IC50 in data set [2] came out at 31.1 µM; in the data set on L6, 49.1 µM.

`C=C(C)C(=O)O[C@H]1C/C(C)=C/C[C@H](O)/C(C)=C\C2OC(=O)C(=C)[C@@H]21` (single isomer, unassigned): in data set [1], the selectivity ratio was found to be 6.1. In addition, the IC50 was 1.54 µM in data set [2] and 9.38 µM in the data set with L6.

For the molecule `C=C1C(=O)OC2/C=C(/C)[C@@H](O)C/C=C(\C)C[C@H](OC(=O)/C(C)=C/C)[C@@H]12` (single isomer, unassigned), the selectivity ratio in data set [1] was 2.9. Further, the IC50 came out at 3.48 µM in data set [2] and 10.2 µM with L6.

For `Nc1nc(N)nc(Nc2ccc([As]3SCC(CO)S3)cc2)n1` (stereo unspecified) [MELARSOPROL], the selectivity ratio in data set [1] was greater than 5000. In the data set with L6, this molecule yielded an IC50 of 29.1 µM.

Turning to `C=C1C(=O)O[C@@H]2/C=C(/C)[C@@H](O)C/C=C(\C)C[C@H](OC(=O)/C(C)=C\C)[C@@H]12` [NOBILIN], the selectivity ratio in data set [1] was 2.1. In addition, the IC50 in data set [2] stood at 3.19 µM; in the data set with L6, 6.64 µM.
